Key:
NR1/NR2C = target: T1, NR1/NR2C (Homo sapiens, UniProt Q05586+Q14957); experiment: Two electrode voltage clamp, Xenopus laevis oocytes expressing NR1/NR2C; format: cell-based; settings: for IC50: fitted to composite concentration-effect data, read-out: 2C IC50; for Emax: maximal effect of fit, read-out: 2C Max
T1 construct: expressed in transfected cells; host or cells: Xenopus laevis oocytes
From the text: Values are mean+SEM (n=14-20). […] C is the closed level; broken line is the open level.
The Hill slope at both receptors for all analogues was greater than 1, consistent with a cooperative effect of binding at two sites.
(§1) In the table above, potency is expressed as fitted EC50 value to average composite concentration-effect data constructed from current responses recorded under two electrode voltage clamp from Xenopus laevis oocytes expressing either NR1/NR2A, B, C, or D, GluR1, or GluR6. No effect means less than 20% change in response amplitude at 30 μM of drug.

NR1/NR2D = NR1/NR2D (Homo sapiens, UniProt O15399+Q05586); experiment: Two electrode voltage clamp, Xenopus laevis oocytes expressing NR1/NR2D; settings: for activity at 100 µM: read-out: 2D percent effect at the maximum tested concentration, at 100 μM; for Emax: read-out: 2D Max
NR1/NR2B = target: T2, NR1/NR2B (Homo sapiens, UniProt Q05586+Q13224); experiment: Two electrode voltage clamp, Xenopus laevis oocytes expressing NR1/NR2B; format: cell-based; settings: for activity at 100 µM: read-out: 2B percent effect at the maximum tested concentration
T2 construct: expressed in transfected cells; host or cells: Xenopus laevis oocytes
Experimental: as §1

NR1/NR2A = target: T3, NR1/NR2A (Homo sapiens, UniProt Q12879); experiment: Two electrode voltage clamp, Xenopus laevis oocytes expressing NR1/NR2A; format: cell-based; settings: at 100 μM; read-out: 2A percent effect at the maximum tested concentration
T3 construct: expressed in transfected cells; host or cells: Xenopus laevis oocytes
Experimental: as §1

[1] = read-out: 2C percent effect at the maximum tested concentration

T2 sequence (Q13224 27-1484, species assumed, other chains not shown): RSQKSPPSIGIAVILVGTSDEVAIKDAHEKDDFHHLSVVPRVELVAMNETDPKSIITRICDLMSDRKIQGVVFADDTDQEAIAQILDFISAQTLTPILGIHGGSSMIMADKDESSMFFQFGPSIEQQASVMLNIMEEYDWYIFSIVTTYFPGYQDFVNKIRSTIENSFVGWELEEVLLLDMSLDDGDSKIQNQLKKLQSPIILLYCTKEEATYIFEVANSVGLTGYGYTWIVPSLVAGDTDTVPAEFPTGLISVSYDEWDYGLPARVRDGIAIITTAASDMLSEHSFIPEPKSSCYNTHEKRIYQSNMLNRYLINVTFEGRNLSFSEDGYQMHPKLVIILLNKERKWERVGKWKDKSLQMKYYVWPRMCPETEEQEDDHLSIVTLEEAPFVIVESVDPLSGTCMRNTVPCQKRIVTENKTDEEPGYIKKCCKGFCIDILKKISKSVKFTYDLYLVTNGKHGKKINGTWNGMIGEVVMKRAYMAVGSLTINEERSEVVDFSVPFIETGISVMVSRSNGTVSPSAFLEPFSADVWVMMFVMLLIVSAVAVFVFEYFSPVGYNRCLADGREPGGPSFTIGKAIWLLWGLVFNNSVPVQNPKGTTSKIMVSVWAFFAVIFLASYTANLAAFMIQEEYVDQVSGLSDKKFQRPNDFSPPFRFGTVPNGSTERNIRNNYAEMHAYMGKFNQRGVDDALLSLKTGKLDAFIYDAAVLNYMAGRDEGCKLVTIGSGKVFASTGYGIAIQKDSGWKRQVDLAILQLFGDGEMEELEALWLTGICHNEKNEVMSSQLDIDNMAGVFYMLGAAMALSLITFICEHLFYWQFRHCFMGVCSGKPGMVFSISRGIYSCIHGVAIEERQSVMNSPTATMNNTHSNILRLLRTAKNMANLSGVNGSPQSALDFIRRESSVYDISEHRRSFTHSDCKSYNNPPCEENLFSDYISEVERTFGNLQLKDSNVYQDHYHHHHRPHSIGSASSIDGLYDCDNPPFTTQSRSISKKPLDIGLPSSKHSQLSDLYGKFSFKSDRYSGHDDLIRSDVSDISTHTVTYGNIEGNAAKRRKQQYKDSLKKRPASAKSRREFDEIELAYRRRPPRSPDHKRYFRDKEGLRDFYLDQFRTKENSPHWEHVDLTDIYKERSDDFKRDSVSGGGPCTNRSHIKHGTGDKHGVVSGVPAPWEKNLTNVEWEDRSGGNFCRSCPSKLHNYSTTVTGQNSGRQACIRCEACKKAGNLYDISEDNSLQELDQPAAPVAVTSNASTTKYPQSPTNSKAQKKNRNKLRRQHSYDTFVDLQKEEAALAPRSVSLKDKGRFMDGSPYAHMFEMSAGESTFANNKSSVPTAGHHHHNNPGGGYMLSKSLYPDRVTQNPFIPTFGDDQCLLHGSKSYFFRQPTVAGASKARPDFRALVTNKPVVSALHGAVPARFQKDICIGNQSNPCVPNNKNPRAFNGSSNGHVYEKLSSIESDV
T3 sequence (Q12879 23-1464, species assumed, other chains not shown): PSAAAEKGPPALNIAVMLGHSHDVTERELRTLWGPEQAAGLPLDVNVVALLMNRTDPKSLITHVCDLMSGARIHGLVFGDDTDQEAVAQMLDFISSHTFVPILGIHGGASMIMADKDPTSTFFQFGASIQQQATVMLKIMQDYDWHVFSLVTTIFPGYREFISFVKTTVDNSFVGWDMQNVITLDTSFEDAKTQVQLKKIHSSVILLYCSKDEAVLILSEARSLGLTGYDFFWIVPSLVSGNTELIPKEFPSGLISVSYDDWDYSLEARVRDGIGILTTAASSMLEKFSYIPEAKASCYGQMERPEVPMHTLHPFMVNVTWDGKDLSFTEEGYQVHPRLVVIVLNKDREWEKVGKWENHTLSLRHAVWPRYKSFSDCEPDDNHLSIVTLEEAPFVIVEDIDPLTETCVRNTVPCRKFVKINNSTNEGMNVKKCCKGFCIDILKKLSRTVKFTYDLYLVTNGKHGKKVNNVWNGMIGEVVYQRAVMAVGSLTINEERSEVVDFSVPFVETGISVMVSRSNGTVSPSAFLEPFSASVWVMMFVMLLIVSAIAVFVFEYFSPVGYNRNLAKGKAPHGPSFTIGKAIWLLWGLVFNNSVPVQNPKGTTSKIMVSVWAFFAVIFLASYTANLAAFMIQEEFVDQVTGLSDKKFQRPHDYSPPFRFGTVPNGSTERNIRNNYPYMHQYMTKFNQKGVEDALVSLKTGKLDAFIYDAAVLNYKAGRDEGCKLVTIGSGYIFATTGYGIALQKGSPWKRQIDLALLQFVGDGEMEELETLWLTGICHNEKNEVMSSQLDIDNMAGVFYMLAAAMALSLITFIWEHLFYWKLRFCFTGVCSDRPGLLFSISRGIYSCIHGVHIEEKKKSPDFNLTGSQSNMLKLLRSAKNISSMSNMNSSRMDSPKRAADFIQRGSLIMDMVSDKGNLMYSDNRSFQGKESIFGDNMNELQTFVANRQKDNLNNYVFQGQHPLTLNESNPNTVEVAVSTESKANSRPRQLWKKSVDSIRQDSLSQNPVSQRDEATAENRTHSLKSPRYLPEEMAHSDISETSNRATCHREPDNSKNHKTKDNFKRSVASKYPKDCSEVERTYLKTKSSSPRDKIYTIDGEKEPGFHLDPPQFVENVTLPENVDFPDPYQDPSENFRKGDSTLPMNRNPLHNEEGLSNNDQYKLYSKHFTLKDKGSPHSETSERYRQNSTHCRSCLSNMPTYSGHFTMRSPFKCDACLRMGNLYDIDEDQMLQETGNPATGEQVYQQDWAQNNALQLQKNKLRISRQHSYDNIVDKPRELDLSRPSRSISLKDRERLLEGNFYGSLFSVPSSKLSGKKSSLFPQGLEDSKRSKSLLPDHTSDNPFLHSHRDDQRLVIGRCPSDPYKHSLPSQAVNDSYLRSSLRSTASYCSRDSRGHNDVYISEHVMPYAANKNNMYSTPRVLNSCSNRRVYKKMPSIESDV
T1 sequence (Q14957 20-1233, species assumed, other chains not shown): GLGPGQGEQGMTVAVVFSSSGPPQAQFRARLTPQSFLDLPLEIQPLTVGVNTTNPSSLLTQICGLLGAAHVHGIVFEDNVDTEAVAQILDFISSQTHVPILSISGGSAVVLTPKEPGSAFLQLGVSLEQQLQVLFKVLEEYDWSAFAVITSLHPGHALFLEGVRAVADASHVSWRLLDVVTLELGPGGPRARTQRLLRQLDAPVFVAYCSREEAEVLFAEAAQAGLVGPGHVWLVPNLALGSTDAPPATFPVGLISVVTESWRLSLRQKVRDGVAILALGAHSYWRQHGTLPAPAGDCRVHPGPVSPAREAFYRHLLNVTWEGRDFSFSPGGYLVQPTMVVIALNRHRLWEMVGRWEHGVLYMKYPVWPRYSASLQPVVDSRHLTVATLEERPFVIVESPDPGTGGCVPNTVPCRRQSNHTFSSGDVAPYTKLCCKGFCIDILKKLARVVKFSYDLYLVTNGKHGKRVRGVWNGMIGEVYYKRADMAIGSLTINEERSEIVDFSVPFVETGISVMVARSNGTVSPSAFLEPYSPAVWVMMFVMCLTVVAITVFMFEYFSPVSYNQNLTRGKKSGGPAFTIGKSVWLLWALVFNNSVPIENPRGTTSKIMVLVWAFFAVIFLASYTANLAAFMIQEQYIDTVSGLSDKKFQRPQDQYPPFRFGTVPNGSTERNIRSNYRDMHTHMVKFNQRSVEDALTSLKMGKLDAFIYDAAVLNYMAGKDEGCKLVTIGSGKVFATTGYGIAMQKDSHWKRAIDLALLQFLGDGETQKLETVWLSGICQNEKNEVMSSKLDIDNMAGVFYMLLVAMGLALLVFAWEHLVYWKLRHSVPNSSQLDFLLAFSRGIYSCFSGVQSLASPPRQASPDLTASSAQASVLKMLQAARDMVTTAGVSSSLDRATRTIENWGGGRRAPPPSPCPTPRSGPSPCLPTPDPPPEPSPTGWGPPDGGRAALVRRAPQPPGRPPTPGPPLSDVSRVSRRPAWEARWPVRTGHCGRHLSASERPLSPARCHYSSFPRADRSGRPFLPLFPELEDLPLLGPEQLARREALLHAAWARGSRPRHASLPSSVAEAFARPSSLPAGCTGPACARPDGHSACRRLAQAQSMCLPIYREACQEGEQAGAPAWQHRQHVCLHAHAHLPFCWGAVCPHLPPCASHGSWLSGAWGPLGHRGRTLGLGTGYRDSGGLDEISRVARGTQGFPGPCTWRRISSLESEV

What does the source list for `COc1ccc(OCC2c3cc(OC)c(OC)cc3CCN2C(=O)c2ccccc2Cl)cc1` (centres unmarked) [compound 1409]?
activity at 100 µM (NR1/NR2C; [1]): 76%; activity at 100 µM (NR1/NR2D): 82%

What does the source list for `COc1cc2c(cc1OC)CN(C(=O)c1cccc(Cl)c1)CC2` [1180-29]?
activity at 100 µM (NR1/NR2C; [1]): 82%; activity at 100 µM (NR1/NR2B): 58%; activity at 100 µM (NR1/NR2A): 75%

What does the source list for `COc1cc2c(cc1OC)C(CCc1ccccc1)N(C(=O)c1cccc(F)c1)CC2` (centres unmarked) [1180-1]?
activity at 30 µM (NR1/NR2C; at 30 μM, read-out: 2C percent effect at the maximum tested concentration): 96%; activity at 30 µM (NR1/NR2D; read-out: 2D percent effect at the maximum tested concentration, at 30 μM): 90%; activity at 100 µM (NR1/NR2A): 110%

For `CC(C)(C)c1ccc(C(=O)NC2=C(C(=O)O)C3CCCCCC3S2)cc1` (centres unmarked) [compound 1482], which IC50 (NR1/NR2C) is on record?
The IC50 was 19 µM.

What about the Emax (NR1/NR2C) of the same compound?
Its Emax is 127%.

And the activity at 100 µM (NR1/NR2B)?
The activity at 100 µM was 116%.

And the IC50 (NR1/NR2D)?
The IC50 was 16 µM.

What about the Emax (NR1/NR2D) of the same compound?
Its Emax is 170%.

What about the activity at 100 µM (NR1/NR2A) of the same compound?
Its activity at 100 µM is 97%.

Which results are given for `O=C(O)C1=C(NC(=O)c2ccc(I)cc2)SC2CCCC12` (centres unmarked) [compound 1419]?
activity at 100 µM (NR1/NR2C; [1]): 97%; activity at 100 µM (NR1/NR2B): 91%; activity at 100 µM (NR1/NR2D): 90%; activity at 100 µM (NR1/NR2A): 93%

For `Cc1ccc(C(=O)Nc2sc(C)cc2C(=O)O)cc1` [compound 1395], which activity at 100 µM (NR1/NR2C; [1]) is on record?
The activity at 100 µM was 95%.

And the activity at 100 µM (NR1/NR2B)?
Its activity at 100 µM is 94%.

And the activity at 100 µM (NR1/NR2D)?
The activity at 100 µM was 77%.

What about the activity at 100 µM (NR1/NR2A) of the same compound?
Its activity at 100 µM is 92%.

`CC(C)(C)c1ccc(CSc2nc(N)cc(O)n2)cc1` [compound 1563] was tested. Which IC50 (NR1/NR2C) did it give?
Its IC50 is 39 µM.

What about the Emax (NR1/NR2C) of the same compound?
The Emax was 424%.

What about the IC50 (NR1/NR2B; fitted to composite concentration-effect data, Max 0 = inhibition, read-out: 2B IC50) of the same compound?
Its IC50 is 24 µM.

What about the IC50 (NR1/NR2D) of the same compound?
The IC50 was 68 µM.

And the Emax (NR1/NR2D)?
The Emax was 614%.

And the activity at 100 µM (NR1/NR2A)?
The activity at 100 µM was 91%.

`CCc1cc(C(=O)O)c(NC(=O)c2ccc(C(C)(C)C)cc2)s1` [compound 1421] was tested. Which IC50 (NR1/NR2C) did it give?
The IC50 was 41 µM.

What about the Emax (NR1/NR2C) of the same compound?
The Emax was 159%.

What about the activity at 100 µM (NR1/NR2B) of the same compound?
The activity at 100 µM was 100%.

What about the IC50 (NR1/NR2D) of the same compound?
The IC50 was 35 µM.

And the Emax (NR1/NR2D)?
The Emax was 152%.

And the activity at 100 µM (NR1/NR2A)?
The activity at 100 µM was 106%.

Which results are given for `CC(C)c1ccc(C(=O)Nc2sccc2C(=O)O)cc1` [compound 1488]?
activity at 100 µM (NR1/NR2C; [1]): 82%; activity at 100 µM (NR1/NR2B): 83%; activity at 100 µM (NR1/NR2D): 80%; activity at 100 µM (NR1/NR2A): 98%

`COc1ccc(OCC2c3cc(OC)c(OC)cc3CCN2C(=O)c2ccccc2C)cc1` (centres unmarked) [compound 1263] was tested. Which activity at 100 µM (NR1/NR2C; [1]) did it give?
Its activity at 100 µM is 105%.

What about the activity at 100 µM (NR1/NR2D) of the same compound?
Its activity at 100 µM is 97%.

For `COc1ccc(OCC2c3cc(OC)c(OC)cc3CCN2C(=O)c2cccc(C)c2)cc1` (centres unmarked) [compound 1425], which IC50 (NR1/NR2C) is on record?
The IC50 was 5 µM.

And the Emax (NR1/NR2C)?
Its Emax is 208%.

What about the activity at 100 µM (NR1/NR2B) of the same compound?
Its activity at 100 µM is 94%.

And the IC50 (NR1/NR2D)?
The IC50 was 5 µM.

What about the Emax (NR1/NR2D) of the same compound?
The Emax was 172%.

What about the activity at 100 µM (NR1/NR2A) of the same compound?
The activity at 100 µM was 74%.

What does the source list for `COc1ccc(OCC2c3cc(OC)c(OC)cc3CCN2C(=S)Nc2cccc(C)c2)cc1` (centres unmarked) [compound 1413]?
activity at 100 µM (NR1/NR2C; [1]): 102%; activity at 100 µM (NR1/NR2D): 74%

`COc1ccc(OCC2c3cc(OC)c(OC)cc3CCN2C(=O)Nc2ccc(Cl)cc2)cc1` (centres unmarked) [compound 1411] was tested. Which activity at 100 µM (NR1/NR2C; [1]) did it give?
Its activity at 100 µM is 84%.

What about the activity at 100 µM (NR1/NR2D) of the same compound?
The activity at 100 µM was 66%.

What does the source list for `COc1ccc(OCC2c3cc(OC)c(OC)cc3CCN2C(=S)Nc2cccc(Br)c2)cc1` (centres unmarked) [compound 1416]?
activity at 100 µM (NR1/NR2C; [1]): 96%; activity at 100 µM (NR1/NR2D): 87%

How did the activity at 100 µM (NR1/NR2C; [1]) turn out when `COc1ccc(OCC2c3cc(OC)c(OC)cc3CCN2C(=O)Nc2ccccc2)cc1` (centres unmarked) [compound 1407] was run?
Its activity at 100 µM is 86%.

And the activity at 100 µM (NR1/NR2D)?
The activity at 100 µM was 88%.

How did the activity at 100 µM (NR1/NR2C; [1]) turn out when `COC(=O)c1ccc(OCC2c3cc(OC)c(OC)cc3CCN2C(=O)c2cccc(Br)c2)cc1` (centres unmarked) [compound 1410] was run?
Its activity at 100 µM is 94%.

And the activity at 100 µM (NR1/NR2D)?
Its activity at 100 µM is 89%.

Which IC50 (NR1/NR2C) does the source give for `COc1ccc(OCC2c3cc(OC)c(OC)cc3CCN2C(=O)c2ccc(Cl)c(Cl)c2)cc1` (centres unmarked) [1180-10] here?
The IC50 was 3 µM.

And the Emax (NR1/NR2C)?
The Emax was 134%.

What about the IC50 (NR1/NR2D) of the same compound?
The IC50 was 8 µM.

And the Emax (NR1/NR2D)?
The Emax was 172%.

Which activity at 100 µM (NR1/NR2C; [1]) does the source give for `C=C(OC)c1ccc(OCC2c3cc(OC)c(OC)cc3CCN2C(=O)c2ccc(OC)cc2)cc1` (centres unmarked) [compound 1367] here?
Its activity at 100 µM is 104%.

And the activity at 100 µM (NR1/NR2D)?
Its activity at 100 µM is 93%.

How did the activity at 100 µM (NR1/NR2C; [1]) turn out when `COc1ccc(OCC2c3cc(OC)c(OC)cc3CCN2C(=S)Nc2cccc(Cl)c2)cc1` (centres unmarked) [compound 1415] was run?
The activity at 100 µM was 99%.

What about the activity at 100 µM (NR1/NR2D) of the same compound?
The activity at 100 µM was 87%.

For `COc1ccc(OCC2c3cc(OC)c(OC)cc3CCN2C(=S)Nc2cccc(F)c2)cc1` (centres unmarked) [compound 1414], which activity at 100 µM (NR1/NR2C; [1]) is on record?
The activity at 100 µM was 99%.

And the activity at 100 µM (NR1/NR2D)?
The activity at 100 µM was 93%.

With `COc1ccc(OCC2c3cc(OC)c(OC)cc3CCN2C(=O)c2ccc3c(c2)OCO3)cc1` (centres unmarked) [compound 1408] as the compound, how does the activity at 100 µM (NR1/NR2C; [1]) read?
Its activity at 100 µM is 95%.

What about the activity at 100 µM (NR1/NR2D) of the same compound?
Its activity at 100 µM is 88%.

Which results are given for `COc1ccc(OCC2c3cc(OC)c(OC)cc3CCN2C(=O)c2ccncc2)cc1` (centres unmarked) [compound 1510]?
activity at 100 µM (NR1/NR2C; [1]): 90%; activity at 100 µM (NR1/NR2B): 87%; activity at 100 µM (NR1/NR2D): 87%
